This note sets out measurements from patent publication US4294972A, “1,2-Disubstituted oxo triazolidine” (Beecham Group Limited, priority 1978, dated 1981).

The subject of test [1] is 5-hydroxytryptamine or histamine induced bronchoconstriction. Description: Konzett-Rossler preparation: inhibition of 5-hydroxytryptamine or histamine induced bronchoconstriction, anaesthetised artificially respired guinea pig. The settings on record: Cavia porcellus, iv. The class given is in vivo. The procedure: 1. The compounds were examined for their ability to inhibit 5-hydroxytryptamine or histamine induced bronchoconstriction in the anaesthetised, artificially respired guinea pig (Konzett-Rossler preparation). The compounds were administered intravenously.

Test [2] relates to bronchoconstriction induced by an histamine aerosol. The test is described as follows: Herxheimer test: protection of conscious guinea pigs against histamine aerosol induced bronchoconstriction. The class given is in vivo, guinea pig. The settings on record: at 10 μg/ml after two minutes, mean of several experiments. The method, then:
2. The compounds were also examined for their ability to protect conscious guinea pigs against bronchoconstriction induced by an histamine aerosol (Herxheimer test). In these experiments the compounds were administered by aerosol. The results are the mean of several experiments.

As to `CCCCCC(O)CCn1c(=O)n(C)c(=O)n1CCCCCCCC(C)=O` (stereo not drawn) [Compound 8], the ED50 in test [1] came out at 6.9 µg/kg. The “Herxheimer % increase in preconvulsive coughing time” value (from here on “Herxheimer % increase”) in test [2] came out at 31%.

In the case of `CCCCCCC(C)(O)CCn1c(=O)n(C)c(=O)n1CCCCCCCC(C)=O` (stereo not drawn) [Compound 1, 1-(8-oxononyl)-2-(3"-hydroxy-3"-methylnonyl)-4-methyl-1,2,4-triazolidine-3,5-dione], the ED50 in test [1] worked out at 2.7 µg/kg. Further, the “Herxheimer % increase” value in test [2] is recorded as “Active”.

In turn, `CCCCCCC(C)(O)CCn1c(=O)n(C)c(=S)n1CCCCCCCC(C)=O` (stereo not drawn) [Compound 9] came in with a 50% effective dose (ED50) in test [1] of 26.5 µg/kg. Moreover, in test [2], the “Herxheimer % increase” value is reported as 52%.

By ED50 is commonly meant the midpoint of the dose-response relation. A lower ED50 goes with greater potency.
